Reference: patent US7989482B2, “Indoline anti-cancer agents” (Joyant Pharmaceuticals, Inc., priority 2008, dated 2011)
Like-named read-outs stand apart in the source and are kept apart here.

What was measured:
[1] = tested on: U937 cells; test: Cell viability assay (CELL-TITER-GLO) in U937 cells; type: cell-based; conditions: Homo sapiens, U937 cells, 48 hour treatment, cell viability, read-out: IC50 (μM) U937
Method: (§1) Cell viability assays were run using standard protocols known to those of skill in art. Cells were plated in 96 well plates at the density of 3,000-10,000 cells per well. Twenty four hours later, cells were treated with increasing concentration of test compounds (1 nM to 1 μM). After another 48 hour, cell survival was measured using CELL-TITER-GLO® reagent (Promega) following the protocol provided by the manufacture. The IC50 value was determined as the concentration of test compound that kills 50% of the cell population.
(§2) Cell viability data generated according to the protocol described in Example 97 was generated for representative compounds in A2058 and U937 cells.

[2] = tested on: A2058 cells; test: Cell viability assay (CELL-TITER-GLO) in A2058 cells; type: cell-based; conditions: Homo sapiens, A2058 cells, 48 hour treatment, cell viability, read-out: IC50 (μM) A2058
Method: as §1, §2

IC50 ([1]; U-937) [µM]	Compound	IC50 ([1]; U-937, 48 h) [µM]	IC50 ([2]; A2058, 48 h) [µM]	IC50 [2] [µM]
–	CC(C)[C@H](O)C(=O)N[C@H]1Cc2ccc3c(c2)C2(C4=C(c5nc(C(=O)OC(C)(C)C)co5)N=C(O4)[C@H](C(C)C)NC1=O)c1ccccc1N[C@H]2O3 (some centres unmarked) [Example 82]	0.066	0.126	–
–	CC(C)[C@H](O)C(=O)N[C@H]1Cc2ccc3c(c2)C2(C4=C(c5cnco5)N=C(O4)[C@H](C(C)C)NC1=O)c1ccccc1N[C@H]2O3 (some centres unmarked) [Example 83]	0.252	0.433	–
–	CCC(O)(CC)C(=O)N[C@H]1Cc2ccc3c(c2)C2(C4=C(c5cnco5)N=C(O4)[C@H](C(C)C)NC1=O)c1ccccc1N[C@H]2O3 (some centres unmarked) [Example 84]	0.315	0.487	–
–	CC(C)[C@H](O)C(=O)N[C@H]1Cc2ccc3c(c2)C2(C4=C(c5ncc[nH]5)N=C(O4)[C@H](C(C)C)NC1=O)c1ccccc1N[C@H]2O3 (some centres unmarked) [Example 85]	0.234	0.337	–
–	CC(C)[C@H](O)C(=O)N[C@H]1Cc2ccc3c(c2)C2(C4=C(c5nc(C#N)c(N)o5)N=C(O4)[C@H](C(C)C)NC1=O)c1ccccc1N[C@H]2O3 (some centres unmarked) [Example 86]	0.064	0.179	–
–	Cc1noc(-c2nc3oc2C24c5ccccc5N[C@H]2Oc2ccc(cc24)C[C@H](NC(=O)[C@@H](O)C(C)C)C(=O)N[C@H]3C(C)C)n1 (some centres unmarked) [Example 87]	0.164	0.479	–
–	CCOC(=O)c1noc(-c2nc3oc2C24c5ccccc5N[C@H]2Oc2ccc(cc24)C[C@H](NC(=O)[C@@H](O)C(C)C)C(=O)N[C@H]3C(C)C)n1 (some centres unmarked) [Example 88]	0.7	> 1	–
> 1	COC(=O)c1nc([C@@H](NC(=O)[C@H](Cc2ccc(O)cc2)NC(=O)[C@@H](O)C(C)C)C(C)C)oc1-c1c[nH]c2ccccc12 [Example 89]	–	–	> 1
–	CC(C)[C@H](O)C(=O)N[C@H]1Cc2ccc3c(c2)C2(C4=C(c5ncc(-c6c[nH]c7c(O)cccc67)o5)N=C(O4)[C@H](C(C)C)NC1=O)c1ccccc1N[C@H]2O3 (some centres unmarked) [Example 90]	> 1	0.994	–
–	CC(C)[C@H](O)C(=O)N[C@H]1Cc2ccc3c(c2)C2(C4=C(c5ncc(-c6c[nH]c7ccccc67)o5)N=C(O4)[C@H](C(C)C)NC1=O)c1ccccc1N[C@H]2O3 (some centres unmarked) [Example 91]	0.579	0.475	–
–	COC(=O)c1nc2oc1[C@@]13c4cc(Cl)ccc4NC1Oc1ccc(cc13)C[C@H](NC(=O)[C@@H](O)C(C)C)C(=O)N[C@H]2C(C)C (some centres unmarked) [Example 93]	> 1	> 1	–
> 1	COC(=O)c1nc([C@@H](NC(=O)[C@H](Cc2ccccc2)NC(=O)[C@@H](O)C(C)C)C(C)C)oc1-c1c[nH]c2ccccc12 [Example 94]	–	–	> 1
–	COc1ccc(-c2cnc(-c3nc4oc3[C@@]35c6ccccc6NC3Oc3ccc(cc35)C[C@H](NC(=O)[C@@H](O)C(C)C)C(=O)NC4C(C)C)o2)cc1 (some centres unmarked) [Example 95]	> 1	> 1	–
